Test results from BindingDB's records for doi:10.7270/Q27H1H0J (Srmlsc, 2008).

Biological target: T1, M1 family aminopeptidase (Plasmodium falciparum (isolate FcB1 / Columbia), UniProt O96935)
T1 sequence (O96935 whole entry): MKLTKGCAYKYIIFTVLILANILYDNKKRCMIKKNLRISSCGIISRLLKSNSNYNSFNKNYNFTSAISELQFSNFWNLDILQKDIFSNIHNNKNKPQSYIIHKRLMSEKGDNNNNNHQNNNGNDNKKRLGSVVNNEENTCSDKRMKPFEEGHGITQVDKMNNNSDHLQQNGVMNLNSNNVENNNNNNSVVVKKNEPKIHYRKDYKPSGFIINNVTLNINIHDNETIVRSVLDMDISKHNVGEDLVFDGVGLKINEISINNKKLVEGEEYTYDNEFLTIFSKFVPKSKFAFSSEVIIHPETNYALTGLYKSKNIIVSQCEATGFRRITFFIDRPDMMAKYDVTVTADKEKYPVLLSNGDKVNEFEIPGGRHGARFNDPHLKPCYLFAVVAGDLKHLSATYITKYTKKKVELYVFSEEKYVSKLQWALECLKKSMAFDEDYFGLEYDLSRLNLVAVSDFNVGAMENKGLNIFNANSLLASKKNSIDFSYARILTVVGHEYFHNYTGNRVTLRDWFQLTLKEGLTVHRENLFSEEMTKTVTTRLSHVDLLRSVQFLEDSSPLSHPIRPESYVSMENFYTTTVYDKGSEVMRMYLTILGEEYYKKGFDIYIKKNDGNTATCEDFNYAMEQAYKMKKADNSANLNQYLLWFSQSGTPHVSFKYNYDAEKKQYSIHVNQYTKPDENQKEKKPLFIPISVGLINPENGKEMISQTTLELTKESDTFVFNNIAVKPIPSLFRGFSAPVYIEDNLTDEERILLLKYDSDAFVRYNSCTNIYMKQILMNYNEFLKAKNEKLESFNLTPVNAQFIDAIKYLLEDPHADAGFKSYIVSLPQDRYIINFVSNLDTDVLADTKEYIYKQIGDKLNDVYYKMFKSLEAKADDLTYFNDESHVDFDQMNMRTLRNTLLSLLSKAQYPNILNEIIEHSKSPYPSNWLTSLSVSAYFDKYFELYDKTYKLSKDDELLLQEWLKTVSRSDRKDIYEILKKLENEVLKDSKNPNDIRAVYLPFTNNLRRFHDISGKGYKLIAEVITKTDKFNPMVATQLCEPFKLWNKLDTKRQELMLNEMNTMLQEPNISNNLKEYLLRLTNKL
Assay: malaria alanyl aminopeptidase activity blockers – biochemical, fluorogenic H-Leu-NHMec substrate, 1536-well (AID 1445)

Compound | IC50
O=C1C([N+](=O)[O-])=CC=CC1/C=N/NC(=O)C1COc2ccccc2O1 (stereo not given) [N'-[(E)-(5-nitro-6-oxo-1-cyclohexa-2,4-dienylidene)methyl]-2,3-dihydro-1,4-benzodioxin-3-carbohydrazide] | 31.4 µM
Cc1ccc2c(c1C)Nc1c(c(=O)c1=O)N2 [SMR000459860] | 48.5 µM
COc1ccc(-c2n[nH]c3c2C2(C(=O)N(CC(=O)O)c4ccccc42)C(C#N)C(=N)O3)cc1OC (stereo not given) [2-[6-amino-5-cyano-3-(3,4-dimethoxyphenyl)-2'-oxo-1'-spiro[2H-pyrano[2,3-c]pyrazole-4,3'-indole]yl]acetic acid] | 43.3 µM
Oc1ccc(O)n1-c1nc2n(n1)C(c1ccccc1)CC(c1ccc(Br)cc1)=N2 (stereo not given) [MLS000037189] | 69.7 µM
C#CCOCCOCCOCCNc1nc(N2CCN(C(=O)[C@H](Cc3cc4ccccc4[nH]3)n3cc([C@@H](N)C(C)CC)nn3)CC2)nc(N2CCN(C(=O)[C@H](Cc3cc4ccccc4[nH]3)n3cc([C@@H](N)CC(C)C)nn3)CC2)n1 (stereo not given in full) [SMR000391064] | 54.6 µM
CCOc1cc(C2C3=C(CCCC3=O)N=C3CCCC(=O)C32)cc(Cl)c1O (stereo not given) [9-(3-Chloro-5-ethoxy-4-hydroxy-phenyl)-3,4,6,7,9,10-hexahydro-2H,5H-acridine-1,8-dione] | 23.9 µM
COc1cc(C=Nn2c(O)csc2=S)cc(Br)c1O [3-[[(Z)-(3-bromo-5-methoxy-4-oxo-1-cyclohexa-2,5-dienylidene)methyl]amino]-2-sulfanylidene-4-thiazolidinone] | 107 µM
CCOC(=O)C(C=NC(N)=Nc1nc2ccccc2o1)C(=O)OCC [2-[[[amino-(1,3-benzoxazol-2-ylamino)methylidene]amino]methylidene]propanedioic acid diethyl ester] | 79.2 µM
O=C1NC(=O)C(N=Nc2cc([N+](=O)[O-])ccc2O)C(=O)N1 | 11.4 µM
CCOC(=O)C1C(CC)=Nc2ccccc2N=C1NS(=O)(=O)c1cc(Br)ccc1Br (stereo not given) [MLS000775637] | 30.3 µM
N#CC(C(=O)CSc1nnc(Cc2cccs2)n1C1CCCCC1)c1nc2ccccc2[nH]1 (stereo not given) [MLS000098387] | 78.9 µM
O=C1OC(C(C=Nc2cc(Cl)ccc2O)[N+](=O)[O-])c2ccccc21 (stereo not given) [3-[(E)-2-[(5-chloranyl-2-oxidanyl-phenyl)amino]-1-nitro-ethenyl]-3H-2-benzofuran-1-one] | 48.8 µM
Clc1ccc(CN=Nc2nnn[nH]2)cc1 | 92.8 µM
COc1ccccc1-c1nnc(SCC(=O)C(C#N)c2nc3ccccc3[nH]2)n1C1CCCCC1 (stereo not given) [SMR000067321] | 52.2 µM
N#C/C(=C\C1C=CC(=O)C([N+](=O)[O-])=C1)c1nc2ccccc2s1 (stereo not given) | 33.9 µM
O=C1Nc2ccccc2SC1C=NCc1ccccc1Cl (stereo not given) [2-{[(2-chlorobenzyl)amino]methylene}-2H-1,4-benzothiazin-3(4H)-one] | 5.63 µM
O=C1CC(c2ccco2)CC(=O)C1=CNc1cc(Cl)ccc1O (stereo not given) [MLS000037985] | 5.58 µM
Nc1nnc(CC(=O)N/N=C/C2C=C([N+](=O)[O-])C=C(Br)C2=O)s1 (stereo not given) [2-(5-azanyl-1,3,4-thiadiazol-2-yl)-N'-[(E)-(5-bromanyl-3-nitro-6-oxidanylidene-cyclohexa-2,4-dien-1-ylidene)methyl]ethanehydrazide] | 30 µM

Compound | IC50
COc1ccc(-c2c/c(=N\CCC(=O)O)c3cc(C)ccc3o2)cc1 | 38.9 µM
Cc1nnc(=O)[nH]c1N=NCc1cccs1 [thiophene-2-carbaldehyde (6-methyl-3-oxo-2,3-dihydro-1,2,4-triazin-5-yl)hydrazone] | 25.8 µM
CCOC(=O)C1C(=O)C(=Cc2ccc(OCC(=O)O)c(OCC)c2)SC1=Nc1ccc(OC)cc1 (stereo not given) [MLS000704394] | 36.3 µM
CCOc1cc(CN=Nc2nc(O)c(CC(=O)O)s2)ccc1OS(=O)(=O)c1ccc(C)cc1 [{2-[(3-ethoxy-4-{[(4-methylphenyl)sulfonyl]oxy}benzylidene)hydrazono]-4-oxo-1,3-thiazolidin-5-yl}acetic acid] | 47.8 µM
O=C(O)COc1ccccc1CN=Nc1ccc(S(=O)(=O)Nc2ccc(Cl)cc2)cc1[N+](=O)[O-] [MLS000774437] | 38.9 µM
CCOc1ccc(-n2c(O)c(CN=Nc3nnc(C)c(=O)[nH]3)c3ccccc3c2=O)cc1 | 20.9 µM
CC1=CC([N+](=O)[O-])=CC(/C=N/NC(=O)C2COc3ccccc3O2)C1=O (stereo not given) [N'-[(E)-(5-methyl-3-nitro-6-oxocyclohexa-2,4-dien-1-ylidene)methyl]-2,3-dihydro-1,4-benzodioxine-3-carbohydrazide] | 3.05 µM
Cc1cc(=O)[nH]c(N=NCc2c(O)n(-c3ccccc3)c(=O)c3ccccc23)n1 [SMR000221270] | 47 µM
CC(NNC(=O)c1cc2ccccc2cc1O)=C1C(=O)c2ccccc2C1=O [N-[1-[1,3-bis(oxidanylidene)inden-2-yl]ethylideneamino]-3-oxidanyl-naphthalene-2-carboxamide] | 12 µM
Cc1c(N2C(=O)C(=O)C(C(=O)c3ccc(Br)cc3)C2c2cccnc2)c(=O)n(-c2ccccc2)n1C (stereo not given) [MLS000724383] | 38.1 µM
O=C(O)c1cccc(-c2ccc(CN=Nc3ccc([N+](=O)[O-])cc3)o2)c1 [MLS000777078] | 27.3 µM
O=C1NC(=S)NC(=O)C1N=Nc1ccc(-c2ccccc2)cc1[N+](=O)[O-] [5-[(2-nitro-4-phenylphenyl)hydrazinylidene]-2-sulfanylidene-1,3-diazinane-4,6-dione] | 10.5 µM
Cc1c(N2C(=O)C(=O)C(C(=O)c3ccc(Cl)cc3)C2c2ccccc2)c(=O)n(-c2ccccc2)n1C (stereo not given) [MLS000331609] | 62.1 µM
C/C(Cl)=C\CN1C(=O)C(=NNC(N)=S)c2ccccc21 [[(Z)-[1-[(E)-3-chlorobut-2-enyl]-2-oxoindol-3-ylidene]amino]thiourea] | 63.5 µM
COc1ccc(-c2c/c(=N\CCCCCC(=O)O)c3cc(C)ccc3o2)cc1 [[2-(4-methoxyphenyl)-6-methyl-chromen-4-ylidene]-(6-oxidanyl-6-oxidanylidene-hexyl)azanium;perchlorate] | 7.22 µM
CCOC(=O)C1C(=O)C(=Cc2ccc(OCC(=O)O)c(OCC)c2)SC1=Nc1ccc(C)cc1 (stereo not given) [(2-ethoxy-4-{[4-(ethoxycarbonyl)-5-[(4-methylphenyl)amino]-3-oxo-2(3H)-thienylidene]methyl}phenoxy)acetic acid] | 48.6 µM
CN1CCN(CC2=c3oc(=O)c(=C4C=CCC=N4)cc3C=CC2=O)CC1 [(3E)-8-[(4-methylpiperazin-1-yl)methyl]-3-(1H-pyridin-2-ylidene)chromene-2,7-dione] | 52.2 µM
